Read-outs that look alike come from different tables or passages of the source.
Tests used:
E. coli [1] = type: cell-based; conditions: for ROS production when sublethal Ag+ is added to the antibiotic: sublethal antibiotic plus 15 μM AgNO3
Source text: FlowJo was used to process flow cytometric data.

[2] = test system: human cell lines (primary keratinocytes, primary hepatocytes and neurons)
E. Coli [3] = assay: Mouse peritonitis model, survival assay; type: in vivo, mice; conditions: after 5 days; i.p.; 30 mg vancomycin/kg, 6 mg AgNO3/kg (35 μM)
Protocol: (§1) Minimum lethal dose (MLD) of E. coli for peritonitis mouse model: For all animal experiments, 6-week-old C57BL6 male mice (body weight, ˜20 g) were used. Serial dilutions of E. Coli ranging from 1×10^6-1×10^9 cfu/mouse were introduced into the peritoneal cavity of the mice in 500 μL aliquots of sterile saline supplemented with 8% mucine. […] The MLD was determined to be 5×10^6 cfu/mouse by measuring the lowest concentration of E. Coli that killed 100% of the recipient mice.
Survival Assays: Male C57BL6 6-week old mice (weighing ˜20 g) received intraperitoneal injections of the MLD of E. Coli in a volume of 500 μL with 8% mucine. After 1 h, ten mice per group received either vehicle (PBS) only or infusions of the antibacterial treatments.

soxS reporter strain = conditions: 1 h, 30 μM AgNO3
Protocol: (§2) Iron misregulation superoxide production and disulfide bond formation measurements: Iron regulation and superoxide production were measured using previously constructed genetic reporter strains. A disulfide bond formation sensor was constructed based on activation of the OxyR protein, which forms a disulfide bond in the presence of H2O2. The disulfide bond formation sensor was constructed by PCR-amplifying the native dps promoter and cloning it into the BamHI and XhoI restriction sites of the pZE21 vector [33]. The forward primer for PCR was […] (SEQ ID NO: 1), and the reverse primer was […] (SEQ ID NO: 2). The data were collected using a Becton Dickinson FACSCalibur flow cytometer with a 488-nm argon laser and a 515-545 nm emission filter (FL1) at high flow rate. Calibrite beads (Becton Dickinson) were used for instrument calibration. FlowJo was used to process flow cytometric data.

Fur reporter strain = conditions: one hour of treatment; 15 and 30 μM AgNO3
Protocol: as §2

[4] = test system: Fe—S clusters in E. Coli cell lysate; conditions: 30 μM AgNO3 for 1 hr
Protocol: Iron detection Ferene S colorimetric assay: The release of protein-bound iron in an E. Coli cell lysate was measured using a Ferene-S assay. The lysate was prepared by first growing 150 mL of cells to an OD600 nm of 0.7. The cells were then lysed by sonication in 20 mM Tris/HCl pH 7.2 buffer. The samples were centrifuged and the supernatants containing the cell lysates were collected. Lysates were treated either with heat (90° C. for 20 min) or with 30 μM AgNO3 (for 1 hr). 10 mM Ferene-S was added to each sample and samples were then incubated at room temperature for 1 h. Absorbance at 593 nm was then measured.

E. Coli [5] = assay: Mouse peritonitis model, E. coli counts in peritoneal cavity; type: in vivo, mice; conditions: after 24 hours; single agent i.p.; 30 mg vancomycin/kg or 6 mg AgNO3/kg
Protocol: as §1
Mouse Peritonitis Model: Inbred, wildtype male C57BL/6 mice (6 weeks; ˜20 g) were used. After one week of quarantine, inoculation was performed by intraperitoneal (i.p.) injection of 500 μL of the MLD E. Coli inoculum using a 26-gauge syringe. The inoculum was delivered in suspension with 8% (w/v) mucine in sterile saline. 1 h after introduction of the inoculum, the untreated control group (t=0) was euthanized. Subsequently, antibacterial therapy was initiated by intraperitoneal injection. Ten mice per group received antibacterial treatments. At time 0 (control only), 8, 16 and 24 h, mice were euthanized. Peritoneal washes were performed by injecting 1.0 mL of sterile saline in the intraperitoneal followed by a massage of the abdomen. Subsequently, the abdomen was opened and 200 μL of peritoneal fluid (PF) was recovered from the peritoneum for analysis of E. Coli cfu/mL.

E. coli [6] = conditions: ΔdsbA knockout; 1 h; 30 μM AgNO3
mice = conditions: concentrations up to 12 mg AgNO3/kg (70 μM)
E. coli [7] = test system: E. coli
Protocol: Transmission electron microscopy: Samples analyzed with transmission electron microscopy were prepared using the following procedure: 100 μL samples were taken, centrifuged and resuspended in 1×PBS twice. To fix the bacterial cells, the samples were centrifuged and resuspended in 1 mL of 2.5% glutaraldehyde solution in PBS for 30 min. The cells were then dehydrated by exposing them for 10 min to a series of ethanol concentration solutions (50, 60, 80, 90 and 100% ethanol/PBS solutions). The cells were finally embedded into Spurr resin and left to polymerize in an oven at 60° C. for 24 h. The polymerized samples were sectioned into slices of thickness of ˜60 nm using a microtome. The sliced samples were analyzed in a Jeol 1200EX-80 kV.

dps reporter strain = dps reporter strain (OxyR disulfide bond formation sensor); type: cell-based, E. coli; conditions: 1 h
Source text: The forward primer for PCR was […] […] (SEQ ID NO: 2). […] Calibrite beads (Becton Dickinson) were used for instrument calibration. FlowJo was used to process flow cytometric data.

E. coli [8] = type: cell-based; conditions: for bactericidal activity when sublethal Ag+ is added to the antibiotic: sublethal antibiotic (0.25 μg/mL gentamicin, 0.03 μg/mL ofloxacin, 1 μg/mL ampicillin) plus 15 μM AgNO3
Protocol: Antibiotics and chemicals: All experiments presented herein were performed in Luria Bertani (LB) medium (Fisher Scientific). […] Additional chemicals that were used in the Examples include: phosphate buffer saline (PBS) (Sigma), Tris/HCl buffer pH 7.5 (Sigma), ferene-S(Fisher Scientific), 3′-p-hydroxyphenyl fluorescein dye (Invitrogen), propidium iodide (Invitrogen), and thiourea (Fluka).
Media and growth conditions: The growth and survival of untreated exponential-phase E. coli strains were compared with the antibiotic-treated strains. Briefly, cultures from frozen stock were grown overnight. The overnight culture was diluted 1:250 with 25 mL of LB medium in 250 mL flasks and incubated at 37° C., 300 rpm, and 80% humidity. Cells were then grown until an OD600 nm of 0.3. For antibiotic treatments, 500 μL samples were taken from the flasks and transferred to a 24-well plate incubated at 37° C., 900 rpms, and 80% humidity. For the hydroxyl radical (OH•) quenching experiments, thiourea (150 mM) was added simultaneously with the silver salt (e.g., AgNO3). Measurements of OD600 nm were taken using a SpectraFluor Plus (Tecan). For measuring the colony forming unit (cfu) per milliliter (mL), 100 μL of culture was collected and then serially diluted in PBS (pH 7.2). A 5 μL portion of each dilution was plated in LB-agar plates and incubated overnight at 37° C. The colonies were counted and cfu/mL was calculated using the following formula: ((number of colonies)*(dilution factor))/(amount plated).
Strains: All E. Coli experiments were performed with MG1655 (ATCC 700926)-derived strains. The knockouts were constructed using P1 phage transduction and derived from the Keio single-gene knockout collection. Removal of the kanamycin resistance cassette was accomplished using the pcp20 plasmid and confirmed by PCR prior to experimentation.

Q: For `O=[N+]([O-])[O-].[Ag+]` [Ag^+, silver nitrate], which “HPF fluorescence (OH• production) compared to untreated cells” value (E. coli [1]; treated for one hour, 30 μM AgNO3, wildtype) is on record?
A: The value was “detectable increases in fluorescence”.

Q: What about the “hydroxyl radical production in ΔarcA strain compared to wildtype” value (E. coli [1]; ΔarcA knockout, 1 h, 30 μM AgNO3) of the same compound?
A: The value was “lower hydroxyl radical production”.

Q: What about the “hydroxyl radical production in ΔcpxA and ΔcpxR strains” value (E. coli [1]; ΔcpxA and ΔcpxR knockouts, 1 h, 30 μM AgNO3) of the same compound?
A: The value was “lower levels of hydroxyl radical production”.

Q: What about the “OH• production in ΔiscS compared to wildtype cells” value (E. coli [1]; ΔiscS knockout, 1 h, 30 μM AgNO3) of the same compound?
A: The value was “significantly lower OH• production”.

Q: And the “toxicity in human cell lines” value [2]?
A: The value was “no significant toxicity”.

Q: What about the mice survived (E. Coli [3]) of the same compound?
A: The mice survived was 50%.

Q: And the “response of soxS reporter strain (superoxide production)” value (soxS reporter strain)?
A: The value was “induce superoxide production”.

Q: What about the “superoxide levels in ΔcydB in response to treatment” value (soxS reporter strain; soxS reporter in ΔcydB) of the same compound?
A: Its value is “lower levels of superoxide”.

Q: What about the “Fur reporter GFP fluorescence relative to untreated cells” value (Fur reporter strain) of the same compound?
A: The value was “significantly increased fluorescence”.

Q: And the “Fe+2 levels in treated lysate relative to untreated lysate” value [4]?
A: Its value is “higher Fe^+2 levels”.

Q: And the “effect on peritoneal E. Coli cell counts” value (E. Coli [5])?
A: The value was “no effect”.

Q: And the “permeability (PI) of ΔdsbA strain versus treated wildtype” value (E. coli [6])?
A: The value was “more permeable”.

Q: What about the toxicity in mice (mice) of the same compound?
A: The toxicity in mice was “no effect”.

Q: What about the “physical changes of bacterial cells (TEM) at sublethal concentrations” value (E. coli [7]; 10 μM and 20 μM AgNO3) of the same compound?
A: The value was “moderate morphological changes and protein aggregate formation”.

Q: And the “physical changes of bacterial cells (TEM)” value (E. coli [7]; bactericidal concentrations (30 μM AgNO3))?
A: Its value is “protein aggregation and drastic morphological changes in the cell envelope”.

Q: And the “dps reporter GFP fluorescence on addition to H2O2 treatment” value (dps reporter strain; 30 μM AgNO3 added to 0.5 mM H2O2)?
A: The value was “reduced the fluorescence back to untreated levels”.

Q: And the “bactericidal activity against exponentially growing E. coli” value (E. coli [8]; 30 μM, wildtype)?
A: Its value is “significant bactericidal activity”.

Q: What about the “phenotype of DsbC knockout under treatment” value (E. coli [8]; DsbC knockout, 30 μM AgNO3) of the same compound?
A: The value was “phenotype similar to that exhibited by ΔdsbA”.

Q: What about the “reduction or inhibition of growth compared to untreated microbes” value (E. coli [8]; silver ions at about 30 μM, FIG. 1A) of the same compound?
A: The value was “at least 30%”.

Q: And the “sensitivity of ΔarcA strain compared to wildtype” value (E. coli [8]; ΔarcA knockout, 30 μM AgNO3)?
A: Its value is “lower sensitivity”.

Q: And the “sensitivity of ΔcpxA and ΔcpxR strains versus wildtype” value (E. coli [8]; ΔcpxA and ΔcpxR knockouts, 30 μM AgNO3)?
A: Its value is “less sensitive”.

Q: And the “sensitivity of cytochrome bd knockout (ΔcydB) versus wildtype” value (E. coli [8]; 30 μM AgNO3)?
A: The value was “less sensitive”.

Q: And the “sensitivity of cytochrome bd knockout (ΔcydB) versus wildtype” value (E. coli [8]; 30 μM AgNO3, listed as silver nitrate)?
A: Its value is “considerably less sensitivity”.

Q: What about the “sensitivity of cytochrome bo knockout (ΔcyoA) versus wildtype” value (E. coli [8]; ΔcyoA knockout) of the same compound?
A: Its value is “greater sensitivity”.

Q: What about the “sensitivity of ΔdsbA strain versus treated wildtype” value (E. coli [8]; ΔdsbA knockout, 30 μM AgNO3) of the same compound?
A: The value was “more sensitive”.

Q: What about the “sensitivity of TCA cycle gene knockout strains versus wildtype” value (E. coli [8]; ΔicdA, ΔsucB, Δmdh, ΔacnB, 30 μM AgNO3) of the same compound?
A: The value was “less sensitive”.

Q: What about the “phenotype of ΔiscS strain under treatment” value (E. coli [8]; ΔiscS knockout, 30 μM AgNO3) of the same compound?
A: Its value is “bacteriostatic phenotype”.

Q: What about the “susceptibility of ΔsecG strain compared to wildtype” value (E. coli [8]; ΔsecG knockout, 30 μM AgNO3) of the same compound?
A: The value was “less susceptible”.

Q: With `OO` [H2O2, reference compound] as the compound, how does the “dps reporter GFP fluorescence relative to untreated cells” value (dps reporter strain; 0.5 mM H2O2 alone) read?
A: The value was “significantly increased fluorescence”.

Q: For `CC1(C)S[C@@H]2[C@H](NC(=O)[C@H](N)c3ccccc3)C(=O)N2[C@H]1C(=O)O` [ampicillin, reference compound], which “ROS (OH•) production from sublethal antibiotic alone” value (E. coli [1]; 1 h) is on record?
A: Its value is “no detectable increases in ROS production”.

Q: And the “ROS production when sublethal Ag+ is added to the antibiotic” value (E. coli [1]; 1 h)?
A: Its value is “dramatic increases in ROS”.

Q: And the “bactericidal activity when sublethal Ag+ is added to the antibiotic” value (E. coli [8])?
A: Its value is “significantly enhanced bactericidal activity”.

Q: With `CN[C@H](CC(C)C)C(=O)N[C@H]1C(=O)N[C@@H](CC(N)=O)C(=O)N[C@H]2C(=O)N[C@H]3C(=O)N[C@H](C(=O)N[C@H](C(=O)O)c4cc(O)cc(O)c4-c4cc3ccc4O)[C@H](O)c3ccc(c(Cl)c3)Oc3cc2cc(c3O[C@@H]2O[C@H](CO)[C@@H](O)[C@H](O)[C@H]2O[C@H]2C[C@](C)(N)[C@H](O)[C@H](C)O2)Oc2ccc(cc2Cl)[C@H]1O` [vancomycin, reference compound] as the compound, how does the mice survived (E. Coli [3]) read?
A: Its mice survived is 10%.

Q: And the “effect on peritoneal E. Coli cell counts” value (E. Coli [5])?
A: The value was “no effect”.

Q: And the “cell death with combination relative to Ag+ or vancomycin alone” value (E. coli [8]; 30 μg/mL vancomycin combined with 15, 20 or 30 μM AgNO3)?
A: Its value is “significantly higher levels of cell death”.

Q: And the “growth of Gram-negative microbes (E. coli) under combination” value (E. coli [8]; vancomycin combined with silver nitrate, silver ions about 15 μM, FIG. 8D)?
A: The value was “reduces the growth”.

Q: With gentamicin [reference compound] as the compound, how does the “ROS (OH•) production from sublethal antibiotic alone” value (E. coli [1]; 1 h) read?
A: Its value is “no detectable increases in ROS production”.

Q: What about the “ROS production when sublethal Ag+ is added to the antibiotic” value (E. coli [1]; 1 h) of the same compound?
A: The value was “dramatic increases in ROS”.

Q: And the “bactericidal activity when sublethal Ag+ is added to the antibiotic” value (E. coli [8])?
A: Its value is “significantly enhanced bactericidal activity”.

Reference: US9913862B2, “Methods of treating gram-negative microbial infections” (TRUSTEES OF BOSTON UNIVERSITY, priority 2011, dated 2018)
